Data on three compounds can be found in patent US4617394A, “4-methyl-5-(unsubstituted and substituted phenoxy)-2,6-dimethoxy-8-(aminoalkylamino) quinolines” (priority 1985, dated 1986).

Values joined by “and” are separate entries in the source; they are usually repeats but may differ in a detail not shown here. Equal values may be shown once. “Also recorded” adds a separate entry of the source. Read-outs that look alike come from different tables or passages of the source.

The test system of series [1] is Plasmodium berghei KBG 173. The experiment in a line: animal or person. In kind it is in vivo, young ICR/HA Swiss mice. As to conditions: for ΔMST: 5 mice; for Toxic death (T): number of 5 mice, 320 mg/kg. From the text:
Blood Schizonticidal Test (Mouse), University of Miami, Rane (suppressive)
This system is based on comparisons of responses to test compounds by Plasmodium berghei KBG 173 malaria in mice as expressed in mean survival times and the mean survival times of untreated controls. Thus, compounds noted as active produce increases in the survival times of the treated animals that are significant when compared with the survival times of untreated controls. Since an established disease is less sensitive to treatment than a disease in the early stages of development, treatment is withheld until the parasitemia is relatively high in order to insure a more reliable assay of activity and the selection of appropriate compounds for intensive preclinical studies.
Utilizing young ICR/HA Swiss mice and a standard inoculum of Plasmodium berghei KBG 173, it is possible to produce a uniform disease fatal to 100% of untreated animals within 6 to 8 days with a mean survival time of 6.2 days. Test animals weigh from 18 to 22 grams but weight variations in any given experimental or control group are confined to 2 to 3 grams. All animals in any given test are approximately of the same age. Animals on test are housed in metal-topped plastic cages, given a standard laboratory diet and water ad libitum.
Test animals receive an intraperitoneal injection of 0.5 ml of 1:100 dilution of heparinized heart's blood with a minimum of 90% parasitized cells (4×10^7 cells), drawn from donor mice infected one week earlier with Plasmodium berghei. The donor strain is maintained by weekly passages in separate groups of mice inoculated with a 0.5 ml of 1:500 dilution of heparinized heart's blood.
Test compounds are administered after dissolution or suspension in peanut oil. A single dose is given subcutaneously 72 hours after the mice are infected with Plasmodium berghei. At this time a 10-15 percent parasitemia has developed; the disease is well established but has not produced sufficient debility to alter the response of the host to toxic effects of the drug on test. Since treatment is withheld for three days to permit the infection to become well established and death occurs in untreated controls within 6 to 8 days, it is believed that this system presents a candidate compound with the maximum challenge. In order to check factors such as changes in the infectivity of Plasmodium berghei or in the susceptibility of the host or to detect technical errors, a group of infected animals treated with pyrimethamine at dose levels producing definite increases in survival time is included as a positive control in every experiment.
In each experiment test compounds are administered in graded doses. […] However, if an active drug is toxic for the host, its toxicity may become a limiting factor; continued increases in dose levels also increase the toxic effects and may result in the diminution of survival times. Deaths prior to the sixth day, when untreated controls begin to die, are regarded as non-parasitic and become the basis for the interpretation that the drug is toxic. Treated animals are kept under observation for 60 days. Survivors at the end of this period of time are considered as cured.
An increase of 100% in mean survival time is considered the minimum effective response for a candidate compound. In calculating mean survival time, toxic deaths and 60 day survivors are not included.

Series [2] concerns Plasmodium cynomolgi (strain B). Nature of the series: Radical Curative Test in Rhesus Monkeys, SEATO Medical Research Laboratory. Conditions: for Cures (C): Table 8, Seato; for Radical Curative Activity, Cures (C): Table 1, Seato Rhesus. In kind it is in vivo, Indian rhesus monkeys. On the procedure: Radical Curative Test in Rhesus Monkeys, SEATO Medical Research Laboratory, Bangkok,
This test is designed to evaluate the tissue schizonticidal (radical curative) activity of test compounds. Well-conditioned Indian rhesus monkeys of either sex weighing 2-4 Kg are utilized. Plasmodium cynomolgi (strain B) sporozoites are prepared by grinding heavily infected Anopheles dirus salivary glands in 1:1 monkey serum-saline vehicle.
Monkeys are infected by I.V. injection of 10^6 freshly isolated P. cynomolgi sporozoites on day 0. A rapidly rising parasitemia develops after a 7 to 9 day prepatient period, and administration of the test drug is initiated when the rising parasite count exceeds 5000 per mm^3 (typically day 10-12). Test drugs are administered orally (by nasogastric intubation) once daily for 7 consecutive days in aqueous solution or, if insoluble, in suspension in 0.3% methylcellulose solution. Chloroquine diphosphate (3.1 mg of base/kg orally per day) is always administered concurrently with the test drug for 7 days to eliminate blood schizonts. Thus any tissue schizonticidal activity of the test drug will always be apparent even if it lacks blood schizonticidal activity.
A vehicle control monkey and a positive drug control (primaquine) monkey are included in each group of inoculated monkeys.
The effect of the test drug is determined by counting blood parasites. Parasite counts are made daily through day 20, and every two days thereafter. Initially a clearance of blood parasites is observed due to the blood schizonticidal action of chloroquine. […] If there is no relapse within 20 days of the initial clearance of parasitemia, the monkey is splenectomized and its parasitemia followed for an additional 30 days. If there is no relapse within this period, the experiment is terminated and the monkey is considered "cured". Alternately, in some experiments, negative parasitemia was followed for 100 days without prior splenectomy. It has been determined that the splenectomy and non-splenectomy methods yield virtually identical results.
Primaquine diphosphate cures over 90% of monkeys in this test system when administered at a dose of 1.3 mg/kg of salt per day for 7 days ([…]) in combination with chloroquine.

In series [3] the test system is Chesson strain of P. vivax. The experiment in a line: Antimalarial activity against (trophozoite-induced) infections of the Chesson strain of P. vivax in the Aotus monkey. In kind it is in vivo.
For series [4], the system named is methemoglobin. In kind it is in vivo, Dog. Conditions: for Peak % MHb / Slope of MHb Formation / Time of Peak MHb / MHb Disappearance Half-Time / MHb Production as AUC Corrected for Baseline: oral capsule, days 0-3, 3 mg/kg primaquine base per day or molar equivalent; for Peak % MHb / Slope of MHb Formation / Time of Peak MHb / MHb Production as AUC Corrected for Baseline: means differ significantly (p <.05); for MHb Disappearance Half-Time: no difference in the means; for MHb Production as AUC Corrected for Baseline: total methemoglobin production.
Procedure: ^a Primaquine, Comparative Compound, or Compound X, were administered
orally by capsule for four days on days 0, 1, 2 and 3 at a dose of 3 mg/k
primaquine base per day or the molar equivalent.
^e Total methemoglobin production expressed as mg of MHb/ml of
blood/hr for a total of 2 days after administration of the first dose.
^f Area under the % methemoglobin versus time curve (AUC).

Series [5] in a line: Acute toxicity in the rat by oral or intraperitoneal administration. Conditions: for LD50 (95% Confidence Limit): Rat.
Series [6] has as its system P. berghei yoelli. The experiment in a line: Causal prophylactic activity against sporozoite induced P. berghei yoelli in the mouse. In kind it is in vivo. As to conditions: for Cures: subcutaneous.
For series [7], the system named is methemoglobin. Conditions: background; cited from earlier work.
The subject of series [8] is Plasmodium vivax and P. ovale malaria. As to conditions: background; cited from earlier work.
For series [9], the system named is Plasmodium berghei KBG 173. Conditions: dose levels as low as; cited from earlier work.
Setting [10] is: Table 2, P. cynomolgi, Rhesus, 0.10 mg/kg × 7 of salt.
Where [11] appears, read: Table 2, P. cynomolgi, Rhesus, 0.316 mg/kg × 7 of salt.
The mark [12] stands for this setting: Table 2, P. cynomolgi, Rhesus, 1.0 mg/kg × 7 of salt.

For the compound `COc1cc(C)c2c(Oc3cccc(C(F)(F)F)c3)c(OC)cc(NC(C)CCCN)c2n1.O=C(O)CCC(=O)O` (stereo not shown) [Compound X, 8-(4-Amino-1-methylbutylamino)-2,6-dimethoxy-4-methyl-5-(3-trifluoromethylphenoxy)quinoline Succinate], the “blood schizonticidal activity in the mouse, in words” value in series [1] (Table 4) is on record as “blood schizonticidal activity in the mouse similar to the Comparative Compound”. The ΔMST in series [1] (Table 4, 5 mg/kg) came to 4 days; in series [1] (Table 4, 10 mg/kg) it was 6 days; in series [1] (Table 4, 20 mg/kg) it was 9 days. Besides, the Cures in [2] (Table 2, P. cynomolgi, Rhesus, 0.0316 mg/kg × 7 of salt) is reported as 0/2; in [2] (setting [10]) it was 2/4; in series [2] (setting [11]), 4/4; in series [2] (setting [12]), 2/2; in series [3] (1 mg/kg × 3 of base), 2/2; in series [3] (4 mg/kg × 3 of base), 4/4. The Cures was 3/3 in series [3] (16 mg/kg × 3 of base); 1/1 in series [3] (32 mg/kg × 3 of base); 0/5 in [6] (2.5 mg/kg of salt); 4/10 in [6] (10 mg/kg of salt); 9/10 in series [6] (40 mg/kg of salt); 5/5 in series [6] (160 mg/kg of salt). Besides, the “Molar Primaquine Index by Regression Analysis” value in [2] (Table 2, ratio of molar ED50, relative to primaquine) is given as 12.8. Also, the “Cures (C)” value in [2] (P. cynomolgi, 0.0316 mg/kg (×7)) is given as 0/2; in series [2] (P. cynomolgi, 0.1 mg/kg (×7)), 2/4; in series [2] (P. cynomolgi, 0.316 mg/kg (×7)), 4/4; in series [2] (P. cynomolgi, 1.0 mg/kg (×7)), 2/2. The “potency relative to primaquine diphosphate, molar basis” value in series [2] (calculated by regression analysis, P. cynomolgi, Rhesus) is recorded as 12.8 times. Moreover, in series [2] (radical curative, P. cynomolgi, Rhesus), the “potency relative to Comparative Compound” value is recorded as “approximately two”. Moreover, the “blood schizonticidal activity in words” value in [3] (Table 3, Succinate) is listed as “much greater blood schizonticidal activity than primaquine; also recorded: slightly better activity than the Comparative Compound”. Also, the “total methemoglobin formation (area under the curve), less than Comparative Compound” value in series [4] (Table 7, 46% less) worked out at 46%. The “methemoglobin-forming property in words” value in series [4] (Table 7, Succinate) was “significantly less toxic in terms of methemoglobinemia”; in series [4] (Table 7, listed as Compound X succinate, Succinate), “much less potent methemoglobin-forming compound than the Comparative Compound”. Moreover, in [4] (Table 7, equimolar doses), the “peak level of methemoglobin” value is given as 16%. In [4] (footnote h, data of single dogs of the group, Succinate), the “MHb Disappearance Half-Time, individual dogs” value was 5.08 days and 7.71 days and 23.30 days. Moreover, the “Peak % MHb” value in series [4] was found to be 16.0 ± 7.72%. In series [4], the “Slope of MHb Formation” value came to 0.61 ± 0.10. Moreover, the “Time of Peak MHb” value in series [4] stood at 6.83 ± 0.72 days. In addition, the “MHb Disappearance Half-Time” value in [4] was determined as 12.03 ± 9.85 days. The “MHb Production as AUC Corrected for Baseline” value in [4] is on record as 7,887 ± 3,609 mg of MHb/ml of blood/hr. Further, the “LD50 (95% Confidence Limit)” value in series [5] (female, I.P.) is 71 (14-114) mg/kg (Salt); in series [5] (female, oral), 416 (376-449) mg/kg (Salt); in series [5] (male, I.P.), 102 (25-164) mg/kg (Salt); in series [5] (male, oral) it was 429 (320-515) mg/kg (Salt). Further, the “acute toxicity in words” value in [5] (Table 6, orally or intraperitoneally) is recorded as “less toxic than primaquine or the Comparative Compound”. For the same compound, the “prophylactic activity in words” value in [6] (Table 5, Succinate) was “showed prophylactic activity; also recorded: slightly less than that observed with the Comparative Compound”.

Regarding `COc1cc(NC(C)CCCN)c2ncccc2c1` (stereo not shown) [Primaquine diphosphate, 8-(4-amino-1-methylbutylamino)-6-methoxyquinoline], the minimal effective dose in series [1] (Plasmodium berghei, in Mus musculus, Table 4, read-out: active dose (active only at)) is 160 mg/kg. Also, the “suppressive activity in words” value in series [1] (Rane mouse test) is listed as “very weak activity at non-toxic dose levels”. The ΔMST in [1] (Table 1, P. berghei, Rane Mouse Test, 160 mg/kg) worked out at 9 days; in series [1] (Table 4, 160 mg/kg), 9 days. Moreover, the “Toxic death (T)” value in [1] (Table 1) and in series [1] (Table 4) was 2/5 each time. For the same compound, the “curative activity in words” value in [1] (Table 4, highest dose of 640 mg/kg) is “not curative even at the highest dose of 640 mg/kg”. The “radical curative activity in words” value in series [2] (0.316 mg/kg) was “inactive”. In addition, the Cures in series [2] (1.0 mg/kg) is on record as 50%; in series [2] (1.3 mg/kg), 100%; in [2] (setting [10]), 0/2; in series [2] (setting [11]), 0/2; in series [2] (setting [12]), 1/2; in series [2] (Table 2, P. cynomolgi, Rhesus, 1.3 mg/kg × 7 of salt) it was 6/6. Further, the values for the Cures in series [3] (3.3 mg/kg × 3 of base), in series [3] (13.3 mg/kg × 3 of base) and in series [3] (26 mg/kg × 3 of base) were 0/10, 3/8 and 5/6, respectively. The monkeys cured result in series [2] (1.3 mg/kg of salt per day for 7 days (1.0 mg/kg free base), in combination with chloroquine) is “over 90%”. Also, the “Radical Curative Activity, Cures (C)” value is 0/2 in [2] (P. cynomolgi, 0.316 mg/kg (× 7)); 1/2 in series [2] (P. cynomolgi, 1.0 mg/kg (× 7)); 6/6 in series [2] (P. cynomolgi, 1.3 mg/kg (× 7)). In [4], the “Peak % MHb” value was 6.27 ± 3.86%. In addition, the “Slope of MHb Formation” value in series [4] amounted to 0.93 ± 0.61. Moreover, the “Time of Peak MHb” value in [4] amounted to 3.92 ± 0.34 days. For the same compound, the “MHb Disappearance Half-Time” value in series [4] was 7.89 ± 3.30 days. For the same compound, the “MHb Production as AUC Corrected for Baseline” value in series [4] is listed as 2,138 ± 1,484 mg of MHb/ml of blood/hr. Besides, in series [7], the “methemoglobin formation in words” value was “cause methemoglobinemia; also recorded: Methemoglobin formation is induced”. In [8], the “toxicity in man, in words” value is on record as “the toxicity of primaquine precludes administration of a single curative dose”. For the same compound, in series [5] (female, oral), the “LD50 (95% Confidence Limit)” value was 244 (193-260) mg/kg (Salt).

Regarding `OC(c1cc(C(F)(F)F)nc2c(C(F)(F)F)cccc12)C1CCCCN1` (stereo not shown) [mefloquine], the “curative dose, Rane Mouse Test” value in series [9] is given as 20 mg/kg.
